# Tested on: Mycobacterium tuberculosis
# Assay: Antimicrobial activity against Mycobacterium tuberculosis H37Rv after 7 days by microplate alamar blue assay
# Assay type: functional
# Conditions: 168 h
row,SMILES,MIC
1,Cc1onc(-c2ccccc2)c1Cn1cc(Cn2ccc3cncnc32)nn1,6.25 µg/mL
2,c1ccc(-c2cc(Cn3cc(Cn4ccc5cncnc54)nn3)cc(-c3ccccc3)n2)cc1,6.25 µg/mL
3,O=c1oc2ccccc2cc1-n1cc(Cn2ccc3cncnc32)nn1,3.12 µg/mL
4,c1ccc(Cn2cc(Cn3ccc4cncnc43)nn2)cc1,> 25 µg/mL
5,CO[C@H]1/C=C/O[C@@]2(C)Oc3c(C)c(O)c4c(O)c(c(/C=N/N5CCN(C)CC5)c(O)c4c3C2=O)NC(=O)/C(C)=C\C=C\[C@H](C)[C@H](O)[C@@H](C)[C@@H](O)[C@@H](C)[C@H](OC(C)=O)[C@@H]1C [RIFAMPIN],0.2 µg/mL
6,Fc1ccc(Cn2cc(Cn3ccc4cncnc43)nn2)cc1,> 25 µg/mL
7,c1ccc(Sc2ccccc2-n2cc(Cn3ccc4cncnc43)nn2)cc1,6.25 µg/mL
8,C=CCn1cc(Cn2ccc3cncnc32)nn1,6.25 µg/mL
9,O=[N+]([O-])c1ccc(-n2cc(Cn3ccc4cncnc43)nn2)cc1,> 25 µg/mL
10,Clc1ccc(-n2cc(Cn3ccc4cncnc43)nn2)cc1,25 µg/mL
11,NNC(=O)c1ccncc1 [ISONIAZID],0.1 µg/mL
12,CCOC(=O)/C=C/Cn1cc(Cn2ccc3cncnc32)nn1,> 25 µg/mL
13,Brc1ccc(Cn2cc(Cn3ccc4cncnc43)nn2)cc1,> 25 µg/mL
14,Fc1ccc(Oc2ccc(Cn3cc(Cn4ccc5cncnc54)nn3)cc2)cc1,3.12 µg/mL
15,Clc1ccc(Cn2cc(Cn3ccc4cncnc43)nn2)cc1,3.12 µg/mL
16,Clc1ccc(Oc2ccccc2)cc1-n1cc(Cn2ccc3cncnc32)nn1,6.25 µg/mL
17,Fc1ccc(-c2cc(Cn3cc(Cn4ccc5cncnc54)nn3)on2)cc1,0.78 µg/mL
18,O=[N+]([O-])c1ccc(Cn2cc(Cn3ccc4cncnc43)nn2)cc1,> 25 µg/mL
19,Fc1ccccc1Cn1cc(Cn2ccc3cncnc32)nn1,> 25 µg/mL
20,CC[C@@H](CO)NCCN[C@@H](CC)CO [ETHAMBUTOL],1.56 µg/mL
21,COC(=O)CCn1cc(Cn2ccc3cncnc32)nn1,1.56 µg/mL
22,O=C(O)c1cn(C2CC2)c2cc(N3CCNCC3)c(F)cc2c1=O [CIPROFLOXACIN],1.56 µg/mL
23,Fc1cccc(-n2cc(Cn3ccc4cncnc43)nn2)c1,> 25 µg/mL
24,COc1cccc(-n2cc(Cn3ccc4cncnc43)nn2)c1[N+](=O)[O-],25 µg/mL
25,Oc1ccccc1-n1cc(Cn2ccc3cncnc32)nn1,6.25 µg/mL
26,COc1ccc(Cn2cc(Cn3ccc4cncnc43)nn2)cc1,> 25 µg/mL
27,Brc1ccccc1Cn1cc(Cn2ccc3cncnc32)nn1,> 25 µg/mL
28,c1ccc(-c2cc(Cn3cc(Cn4ccc5cncnc54)nn3)on2)cc1,0.78 µg/mL
